Marks after values point to notes of the source that are not given here. *1 amine or outer side, *2 acyl side, *3 side chain or, on linkers, in order; H or OH if unused. Where no end group is shown, it is not given here. [ ]: non-standard residue; d: D form. The star is where a group is joined. aminoluciferin = O=C(O)[C@H]1CSC(c2nc3ccc(N*)cc3s2)=N1; AFC = O=c1cc(C(F)(F)F)c2ccc(N*)cc2o1; AMC = Cc1cc(=O)oc2cc(N*)ccc12; Suc = O=C(CCC(=O)[*:2])[*:1]; code Z = not defined here; Cbz = O=C(OCc1ccccc1)*
What was measured:
[1] = test system: untreated viable HL-60 or Jurkat cells; test: Protease retention: substrate cleavage in untreated viable cells; assay type: cell-based; design: key: None denotes no statistical activity above control population.; (+) to (+++++) denotes the range of activity above control population from modest to robust; (+) to (+++++) denotes the range of activity above control population from modest to robust; (+) to (+++++) denotes the range of activity above control population from modest to robust; (+) to (+++++) denotes the range of activity above control population from modest to robust; (+) to (+++++) denotes the range of activity above control population from modest to robust; settings: proteolytic activity on substrate in untreated viable HL-60 or Jurkat cells, above control population; 15-30 min 37° C.
Description: (§1) All substrates were solubilized in DMSO from 10 to 100 mM depending upon inherent solubility. Fluorescent substrates were diluted to 100 μM to 1 mM in 10 mM Hepes, pH 7.5 or matched cell culture medium with 10% serum and added in 1/10th volumes to lysed (freeze fractured, sonicated, or detergent) or untreated viable cells in white-walled, clear bottomed 96-well plates. HL-60 or Jurkat were used in the experimentation interchangeably because of their easily manipulated suspension phenotype. Plates were incubated for 15-30 minutes at 37° C. prior to measuring fluorescence by the CytoFluor II.
(§2) Luminescent substrates were added to a luciferin detection cake (Promega V859A) resuspended in 2 ml 10 mM Hepes, pH 7.5 to 500 μM. ⅕^th volume of the proluminescent reaction mixes were added to lysed (freeze fractured, sonicated, or detergent) or untreated viable cells in white-walled, clear bottomed 96-well plates. Again, HL-60 or Jurkat were used in the experimentation interchangeably. Plates were incubated at 37° C. in a MeCour' circulating heat block controlled by a Caron 2050 W exchange unit. Luminescence was measured between 15 and 30 minutes (signal steady state).
(§3) A broad variety of proteolytic substrates were examined in an effort to characterize potential substrate preferences for protease release or retention in compromised or viable cells (see Table 3). […] Non-blocked substrates (H- and the like) were examined to include the contribution of aminopeptidase activities. From this panel, at least three proteolytic profiles emerged: an aminopeptidase-like activity preferring unblocked Ala-Ala-Phe tripeptide, a proteosomal (chymotrypsin-like) activity measured by release of blocked Leu-Leu-Val-Tyr (SEQ ID NO:1) peptides, and an exceedingly labile activity by Gly-Phe, Gly-Ala, Phe-, Tyr- or Gly-Gly-Leu substrates. The latter activities were only measurable in viable, intact cells. Of further significance is that several fluorophores or proluminescent labels can be used to detect these activities, ultimately allowing for enhanced downstream multiplexing flexibility.

[2] = test system: lysed HL-60 or Jurkat cells; test: Protease release: substrate cleavage in lysed (compromised) cells; assay type: cell-based; design: key: None denotes no statistical activity above control population.; (+) to (+++++) denotes the range of activity above control population from modest to robust; (+) to (+++++) denotes the range of activity above control population from modest to robust; (+) to (+++++) denotes the range of activity above control population from modest to robust; (+) to (+++++) denotes the range of activity above control population from modest to robust; (+) to (+++++) denotes the range of activity above control population from modest to robust; settings: proteolytic activity on substrate in lysed (freeze fractured, sonicated or detergent) HL-60 or Jurkat cells, above control population; 15-30 min 37° C.
Description: as §1, §2, §3

[3] = test system: proteasome or luciferase activity in HL-60 cells; test: Screen of cell membrane permeabilization reagents in cell-based luminescent proteasome reaction; settings: 25,000 HL-60 cells, detergent 0.05 and 0.1% final, 22° C., LLVY-aminoluciferin
Description: FIGS. 10A-C. Screen for cell membrane permeabilization reagents suitable to detect proteasomes in a cell-based luminescent reaction.
Other permeabilizing agents were screened for those suitable to detect proteasome activity in a cell-based assay (FIGS. 10A-C). Reagents containing low concentrations of various detergents (0.05 and 0.1% final) were prepared. 100 μl/well samples containing 25,000 HL-60 cells in complete medium were added to a 96-well plate and equilibrated at 37° C. The plate and reagents were cooled to 22° C. and an equal volume of reagent was added to each sample. The plate was shaken for 1 minute, then incubated at 22° C. Luminescence was then determined over time.

[4] = test system: proteasome activity in HL-60 cells; test: Cell-based luminescent proteasome assay in HL-60 cells; settings: 1.5 hour treatment (FIG. 2B)
[5] = test system: SK-MEL-28 cells; test: Multiplexed protease retention (Gly-Phe-AFC) and Caspase-Glo 3/7 assay; assay type: cell-based; settings: serial dilutions, 5 hours
Description: (§4) SK-MEL-28 or ACHN cells were seeded into white-walled, clear bottomed 96 well plates at a density of 10,000 cells per well in 100 μl volumes and allowed to attach at 37° C. in 5% CO2 for a period of 2 hours. After attachment, 50 μl of medium was carefully removed and replaced with serial dilutions of either ionomycin or staurosporine in MEM+10% FBS. Medium only served as control. The plate was incubated for an additional 5 hours. A 1 mM solution of Gly-Phe-AFC was made in MEM and added to the wells in a 1/10th volume. Resulting fluorescence was measured using a CytoFluor II. Caspase-Glo™ 3/7 reagent was then added and luminescence measure using a BMG FLUOstar Optima.

[6] = test system: ACHN cells; test: as above; assay type: cell-based; settings: serial dilutions, 5 hours
Description: as §4

Row | Compound | Retention [1] | Release [2] | also measured
1 | Cc1cc(=O)oc2cc(NC(=O)[C@@H](N)Cc3ccccc3)ccc12 [H-Phe-AMC] | +++ | None | 
2 | Cc1cc(=O)oc2cc(NC(=O)[C@@H](N)Cc3ccc(O)cc3)ccc12 [H-Tyr-AMC] | ++ | None | 
3 | H-Gly-Phe-{AMC} | ++ | None | 
4 | Ala-Ala-Phe-{AMC} | None | ++++ | 
5 | H-Gly-Ala-{AMC} | ++ | None | 
6 | Tergitol® NP-9 |  |  | effect on proteasome or luciferase activity [3]: did not substantially effect
7 | (Gly-Phe)2-R110 [(Gly-Phe)2 R110] | None | None | 
8 | Z-Leu-Arg-aminoluciferin [Z-Leu-Arg-Aluc] | None | None | 
9 | H-Gly-Gly-{AMC} | None | None | 
10 | H-Pro-Phe-Arg-{AMC} | None | None | 
11 | Ala-Ala-Phe-aminoluciferin | None | ++++ | 
12 | Suc-Ala-Ala-Phe-{AMC} | None | None | 
13 | C[C@H](CCC(=O)NCCC[N+](C)(C)CCCS(=O)(=O)[O-])[C@H]1CC[C@H]2[C@@H]3[C@H](O)C[C@@H]4C[C@H](O)CC[C@]4(C)[C@H]3C[C@H](O)[C@]12C [CHAPS] |  |  | effect on proteasome or luciferase activity [3]: negative effects
14 | Ser-Tyr-{AFC} | None | None | 
15 | Gly-Phe-{AFC} | ++++ | None | 
16 | H-[dA]-Leu-Lys-{AMC} | None | None | 
17 | CCCC[C@@H](C=O)NC(=O)[C@H](CC(C)C)NC(=O)OCc1ccccc1 [Calpeptin, calpeptin] |  |  | effect on proteasome activity [4]: minimal effect

Row | Compound | Retention [1] | Release [2] | also measured
18 | Triton X-100 |  |  | effect on proteasome or luciferase activity [3]: did not substantially effect
19 | Cbz-Phe-Arg-{AMC} | None^1 | None | 
20 | Z-Arg-Leu-Arg-Gly-Gly-AMC (RLRGG; Z N-terminal, AMC C-terminal) | None | None | 
21 | Glutyl-Ala-Ala-Phe-AMC [Gluty-Ala-Ala-Phe-AMC] | None | None | 
22 | Cbz-Gly-Gly-Leu-{AMC} | ++* | None | 
23 | Ac-Ala-Ala-Tyr-{AMC} | None | None | 
24 | Suc-Leu-Leu-Val-Tyr-AMC (Suc-LLVY-{AMC}; SMILES Cc1cc(=O)oc2cc(NC(=O)[C@H](Cc3ccc(O)cc3)NC(=O)[C@@H](NC(=O)[C@H](CC(C)C)NC(=O)[C@H](CC(C)C)NC(=O)CCC(=O)O)C(C)C)ccc12) | None | + | 
25 | CCCCCCCCCCCCOS(=O)(=O)[O-].[Na+] [SDS] |  |  | effect on proteasome or luciferase activity [3]: negative effects
26 | C[C@H](CCC(=O)O)C[C@H](C)C[C@H](C)C(=O)/C=C(\O)[C@H](C)C[C@H](C)C/C=C/[C@@H](C)[C@@H](O)[C@@H](C)[C@@H](O)C[C@@H]1CC[C@@](C)([C@H]2CC[C@@](C)([C@@H](C)O)O2)O1 [ionomycin] |  |  | cytotoxicity profile (protease retention viability and caspase 3/7 activity) [5]: necrotic-type profile
27 | Cbz-Gly-Ala-Met-{AMC} | None | None | 
28 | CN[C@@H]1C[C@H]2O[C@@](C)([C@@H]1OC)n1c3ccccc3c3c4c(c5c6ccccc6n2c5c31)C(=O)NC4 [staurosporine] |  |  | cytotoxicity profile (protease retention viability and caspase 3/7 activity) [5]: caspase activation (and therefore apoptosis induction) is evident; cytotoxicity profile (protease retention viability and caspase 3/7 activity) [6]: apoptotic profile
29 | Z-Leu-Leu-Val-Tyr-aminoluciferin ({code Z}-LLVY-aminoluciferin; reading uncertain; also: printed as Z-Leu-Leu-Val-Tyr-aminoluciferin) [Z-Leu-Leu-Val-Tyr-Aluc] | None | ++ | 
30 | (Ala-Ala-Phe)2-R110 [(Ala-Ala-Phe) 2 R110] | None | ++++ | 
31 | Suc-Arg-Pro-Phe-His-Leu-Leu-Val-Tyr-AMC (Suc-RPFHLLVY-{AMC}; SMILES Cc1cc(=O)oc2cc(NC(=O)[C@H](Cc3ccc(O)cc3)NC(=O)[C@@H](NC(=O)[C@H](CC(C)C)NC(=O)[C@H](CC(C)C)NC(=O)[C@H](Cc3c[nH]cn3)NC(=O)[C@H](Cc3ccccc3)NC(=O)[C@@H]3CCCN3C(=O)[C@H](CCCNC(=N)N)NC(=O)CCC(=O)O)C(C)C)ccc12) [S-R-P-F-H-L-L-V-Y-AMC] | None | None | 
32 | Z-Leu-Arg-Gly-Gly-AMC (LRGG; Z N-terminal, AMC C-terminal) | None | None | 
33 | Tween®-20 |  |  | effect on proteasome or luciferase activity [3]: negative effects
34 | Z-Phe-Arg-aminoluciferin [Z-Phe-Arg-Aluc] | None | None | 
